Data on six compounds can be found in patent US20130274235A1, “TREATMENT OF MOTOR NEURON DISEASE” (THE GENERAL HOSPITAL CORPORATION, priority 2010, published 2013).

For one experiment, the system named is IGF-II mRNA. The experiment in a line: IGF-II expression assay, qPCR detection, in primary spinal cord cultures. It counts as cell-based, mice. Here is the method:
Quantitative PCR utilizing SYBR green I (Molecular Probes, Eugene, Oreg.) or specific Taqman probes was used to confirm differential gene expression. RNA extracted from 100-200 LCMed motor neurons were reverse transcribed using Superscript III (Invitrogen). 2 μl of diluted cDNA was amplified (DNA Engine Opticon real-time PCR machine, Bio-Rad), in […] reactions containing 900 nM primer and 250 nM probe in Taqman Universal Master Mix (Applied Biosystems). Reactions were run in duplicate and each gene analyzed in at least three different animals. Reaction parameters were as follows: 50° C. for 2 min, 95° C. for 10 min, and 40 cycles of 95° C. for 15 s and 60° C. for 1 min. Controls lacking template and/or Superscript were included. The absolute copy number for each gene was quantified using a standard curve from human GAPDH plasmid and amplified products were normalized against rat GAPDH expression. Primers and probes (Integrated DNA technologies) were as follows: rat GAPDH: Forward primer: […]
Two libraries of FDA-approved drugs (NINDS and Harvard LDDN) were screened for their ability to up-regulate IGF-II expression. Candidate compounds were screened in an IGF-II expression assay using a qPCR detection methodology in primary spinal cord cultures or using a luciferase reporter assay. In the initial screening, therapeutic candidates were identified as those that increased IGF-II expression by at least 2-fold. […]
Background: In qPCR the cycle at which signal appears reflects the starting amount.

In experiment [1] the test system is motor neurons in primary spinal cord cultures. In words: Low-level progressive glutamate excitotoxicity in primary spinal cord cultures. It counts as cell-based, mice. Conditions: drug pretreatment, glutamate/PDC treatments 48 hours apart, FIG. 8. How it is done:
Primary spinal cord cultures from E12 pregnant mice were pre-treated for 72 hours with 1 μM, 2.5 μM, 5 μM, or 10 μM of a selected drug according to prior optimized dosing regimen. Drugs tested were identified during screening of qPCR. Subsequently, experimental cultures were grown in the presence of 0, 1.0 μM, 2.5 μM, or 10 μM drug for 24 hours prior to exposure to two glutamate (20 μM)/PDC (1 μM) or glutamate (50 μM)/PDC (10 μM) treatments 48 hours apart. Control samples (no glutamate/PDC treatment) were cultured for 24 hours in the presence of 10 μM drug administered 3 times to determine toxicity of treatment. All cultures were then fixed and stained with ChAT, Hoechst stain of the nuclei, and Islet1/2 antibody labels for the motorneuron columns. Results were analyzed using an In Cell Analyzer (GE Healthcare). Results were presented as percent of vehicle (DMSO) treated control cells.

The subject of another experiment is IGF-II protein. The experiment in a line: IGF-II protein expression in primary spinal cord cultures, quantitated by ELISA. It counts as cell-based, mice. From the text: Further results of the library screening identified the following therapeutic agents as having a significant inducing effect on IGF-II expression in primary spinal cord cultures and are useful for treating motor neuron disease. Protein expression was quantitated by ELISA.
On the technique in general: In an ELISA, binding on a coated surface is turned into a signal by an enzyme label.

In experiment [2] the test system is IGF-II P4 promoter. The experiment in a line: Luciferase reporter assay, P4 IGF-II promoter cell line (SK-N-FI cells). It counts as cell-based. The note with it: FIG. 9, HCl. Here is the method: pGL4.17[luc/Neo] reporter constructs were transfected to contain the P4 IGF-II promoter using the Blue Heron Bio GeneMaker. After transfection of reporter constructs into SK-N-FI cells+IGF-II using G418 selection pressure for generation of stable cell-line, clonal expansion, IGF-II up-regulating drugs such as glucocorticoids were added, and luminescence was measured. The cell lines were optimized for luciferase intensity, background, and responsiveness. The transfected cells were then used to screen the drug libraries described above
The P4 promoter cell line was cultured as described above. Eight drugs that were positive in the small library screen were tested as described above, and luciferase luminescence was measured. Of the eight tested drugs, four acted on the P4 IGF-II promoter. The best-performing non-glucocorticoid candidate that was tested was Vardenafil HCl. […] Vardenafil HCl is a phosphodiesterase type 5 (PDE5) inhibitor with a structure as shown in FIG. 11 and is known to increase cellular cGMP. Vardenafil has been previously FDA approved for treatment of erectile dysfunction and is also clinically used for treating pulmonary hypertension, and is in preclinical studies as a treatment of cystic fibrosis.

For experiment [3], the system named is IGF-II P4 promoter. Conditions: cited from earlier work.
Experiment [4] has as its system spinal motor neurons in primary culture. The experiment in a line: Neuroprotection against glutamate-induced toxicity in primary spinal cord cultures. It counts as cell-based, rat. The note with it: 10-100 ng/ml, 2-4 h pretreatment; 20 μM glutamate + 100 μM PDC. How it is done: Time-pregnant Sprague Dawley wild-type rats were anesthetized, decapitated and E15.5 embryos collected, decapitated and spinal cords isolated in Hanks balanced salt solution (HBSS, Invitrogen). Dissections of spinal cords were done carefully to avoid the inclusion of somites or other external tissues. Cells were dissociated by gentle trituration and incubation with papain (Worthington Biochemical Corporation). Cells were cultured for 6 days in Neurobasal media (Invitrogen) containing 10% fetal bovine serum (FBS, Fisher scientific), 1×B27 supplement (Invitrogen), 500 μM glutamine (Invitrogen), […] mercaptoethanol (Invitrogen), Penicillin-Streptomycin (Invitrogen) or in DMEM/F12 (Invitrogen) containing 5% FBS, 1×N2 supplement A (Stem Cell Technologies), glucose (0.36%, Sigma), bovine serum albumin (0.25%, Invitrogen), Penicillin-Streptomycin (Invitrogen). Either culture media could maintain spinal cord cultures containing motor neurons. […]
For immunofluorescent staining, coverslips/sections were rinsed with phosphate buffered saline and incubated with blocking buffer (see above) for 1 h. […] The effect of glutamate, IGF-II and/or guanine deaminase on motor neuron survival was carefully evaluated, as was the co-localization of motor neuron markers.

“And” between values parts separate entries of the source, which are not always exact repeats. Identical values can stand only once. “Also recorded” adds a separate entry of the source. Counter-ions that a name gives are not always drawn. Like-named read-outs stand apart in the source and are kept apart here.

Consider `N=C(N)N/N=C/c1c(Cl)cccc1Cl` [Guanabenz acetate], for which, in the experiment on IGF-II mRNA, the “Fold Increase in IGF-II mRNA Expression” value was found to be 3.8 fold. Also, in the experiment on IGF-II mRNA (antihypertensive agents, FIGS. 5 and 6), the “induction of IGF-II expression (in words)” value is reported as “most active”. For the same compound, the “protection of motor neurons against glutamate/PDC excitotoxic insult” value in experiment [1] is reported as “provided a level of protection”.
`Cc1ncc(C[n+]2csc(CCO[P@](=O)(O)OP(=O)(O)O)c2C)c(N)n1` [Thiamine pyrophosphate]: the “Fold Increase in IGF-II mRNA Expression” value in the experiment with IGF-II mRNA was 4.1 ± 2.1 fold. In the experiment with IGF-II protein, the “Fold Increase in IGF-II Protein Expression” value turned out to be 0.9 fold and the “IGF-II Protein Expression (pg/ml in media)” value is listed as “(118 ± 42) pg/ml”.
Consider `CC(C)[C@H](N)C(=O)OCCOCn1cnc2c(=O)[nH]c(N)nc21` [Valacyclovir HCl], for which the “Fold Increase in IGF-II mRNA Expression” value in the experiment with IGF-II mRNA is reported as 4.2 ± 1.8 fold. In addition, in the experiment with IGF-II protein, the “Fold Increase in IGF-II Protein Expression” value was determined as 1.5 fold and the “IGF-II Protein Expression (pg/ml in media)” value is given as “(232 ± 4) pg/ml”.
Take `CCCc1nc(C)c2c(=O)[nH]c(-c3cc(S(=O)(=O)N4CCN(CC)CC4)ccc3OCC)nn12` [Vardenafil HCl]: the “Fold Increase in IGF-II mRNA Expression” value in the experiment on IGF-II mRNA (HCl) is 6.5 fold and 6.5 ± 0.2 fold. Moreover, in the experiment with IGF-II protein, the “Fold Increase in IGF-II Protein Expression” value was determined as 1.6 fold and the “IGF-II Protein Expression (pg/ml in media)” value is “(245 ± 27) pg/ml”. The “protection of motor neurons against glutamate/PDC excitotoxic insult” value in experiment [1] (HCl) is “provided a level of protection; also recorded: rescues primary motor neurons from low-level progressive glutamate toxicity”. Also, the “luciferase luminescence, activation of P4 IGF-II promoter” value with IGF-II P4 promoter [2] is “roughly equal to those of Hydrocortisone at three concentrations; also recorded: activation, as shown in FIG. 9, at a level similar to the known P4 activator hydrocortisone”.
As to `C[C@]12CCC(=O)C=C1CC[C@@H]1[C@@H]2[C@@H](O)C[C@@]2(C)[C@H]1CC[C@]2(O)C(=O)CO` [hydrocortisone], the “P4 IGF-II promoter activation (known)” value in the experiment with IGF-II P4 promoter [3] is “known P4 activator”.
Consider “IGF-II: recombinant IGF-II (R&D Systems), added exogenously to primary spinal cord cultures”, for which the “protection of motor neurons from glutamate-induced toxicity” value in experiment [4] is “blocked glutamate-induced motor neuron loss completely; also recorded: protected motor neurons against the toxicity; also recorded: protected motor neurons from glutamate-induced toxicity”.
